# In patent publication US20230167073A1 (Teijin Pharma Limited, priority 2020, published 2023):
# Target: T1, Human TRPC6 (Homo sapiens, UniProt Q9Y210)
# T1 construct: expressed in transfected cells
# T1 sequence (Q9Y210 1-931): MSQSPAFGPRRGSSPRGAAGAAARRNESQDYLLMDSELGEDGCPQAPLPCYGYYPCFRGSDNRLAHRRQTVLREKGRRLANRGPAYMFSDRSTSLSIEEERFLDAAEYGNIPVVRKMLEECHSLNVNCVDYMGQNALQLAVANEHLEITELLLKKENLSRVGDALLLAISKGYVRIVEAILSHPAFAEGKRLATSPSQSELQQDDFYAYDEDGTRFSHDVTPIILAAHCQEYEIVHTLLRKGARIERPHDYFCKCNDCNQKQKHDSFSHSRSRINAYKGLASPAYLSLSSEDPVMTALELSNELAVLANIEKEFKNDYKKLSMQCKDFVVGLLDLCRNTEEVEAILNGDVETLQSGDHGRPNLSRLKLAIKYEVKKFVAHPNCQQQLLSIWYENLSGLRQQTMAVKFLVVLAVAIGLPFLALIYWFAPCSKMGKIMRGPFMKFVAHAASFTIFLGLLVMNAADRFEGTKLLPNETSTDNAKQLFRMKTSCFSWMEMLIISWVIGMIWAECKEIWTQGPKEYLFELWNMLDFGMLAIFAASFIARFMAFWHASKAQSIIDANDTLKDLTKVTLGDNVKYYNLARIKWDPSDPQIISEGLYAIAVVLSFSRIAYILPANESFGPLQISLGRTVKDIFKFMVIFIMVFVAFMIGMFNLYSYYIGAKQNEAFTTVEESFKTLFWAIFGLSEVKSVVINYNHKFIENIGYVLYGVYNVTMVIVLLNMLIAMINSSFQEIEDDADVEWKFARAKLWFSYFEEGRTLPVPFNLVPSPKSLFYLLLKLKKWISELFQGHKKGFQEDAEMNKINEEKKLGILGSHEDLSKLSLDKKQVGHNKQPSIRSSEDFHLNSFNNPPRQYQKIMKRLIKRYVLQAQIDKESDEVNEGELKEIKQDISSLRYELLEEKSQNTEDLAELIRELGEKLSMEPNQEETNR
# Assay: Evaluation of TRPC6 channel inhibitory activity (1), FLIPR Calcium 5 Assay Kit, OAG stimulation (Compound Nos. 1-1293)
# Format: cell-based
# Details: Human TRPC6 stably-expressing cells, OAG 30 μM, FLIPR Calcium 5 Assay Kit; read-out: Inhibitory activity (pIC50 class) (converted)
# Outline: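 Calcium influx read by FLIPR fluorescence in cells stably expressing human TRPC6, dye-loaded 30 min. Compounds preincubated 20 min, then OAG stimulation at 30 μM final. Inhibition fitted by four-parameter logistic regression to give pIC50, reported as +/++/+++ categories.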
row,SMILES,IC50 [nM]
1,"Cc1nc(Oc2cc(C#N)ccc2-c2ccc(CCN)nc2)cc(-c2cccc(F)c2)n1 [Compound 167, 4-[6-(2-aminoethyl)pyridin-3-yl]-3-[6-(3-fluorophenyl)-2-methylpyrimidin-4-yl]oxybenzonitrile]",10 to 1000
2,"Cc1nc(Oc2cc(C#N)ccc2-c2csc(C(O)CN)n2)cc(N2CCOCC2)n1 (stereo not drawn) [Compound 168, 4-[2-(2-amino-1-hydroxyethyl)-1,3-thiazol-4-yl]-3-(2-methyl-6-morpholin-4-ylpyrimidin-4-yl)oxybenzonitrile]",10 to 1000
3,"Cc1nc(Oc2cc(C#N)ccc2-n2cnc(C(O)CN)c2)cc(N2CCOCC2)n1 (stereo not drawn) [Compound 169, 4-[4-(2-amino-1-hydroxyethyl)imidazol-1-yl]-3-(2-methyl-6-morpholin-4-ylpyrimidin-4-yl)oxybenzonitrile]",> 1000
4,"Cc1nc(Oc2cc(C#N)ccc2-n2cc([C@@H](O)CN)cn2)cc(-c2ccccc2)n1 [Compound 170, 4-[4-[(1R)-2-Amino-1-hydroxyethyl]pyrazol-1-yl]-3-(2-methyl-6-phenylpyrimidin-4-yl)oxybenzonitrile]",< 10
5,"Cc1nc(Oc2cc(C#N)ccc2-n2cc([C@H](O)CN)cn2)cc(-c2ccccc2)n1 [Compound 171, 4-[4-[(1S)-2-amino-1-hydroxyethyl]pyrazol-1-yl]-3-(2-methyl-6-phenylpyrimidin-4-yl)oxybenzonitrile]",< 10
6,"Cc1cc(Oc2cc(C#N)ccc2-c2ccc(CCN)nc2)cc(N2CCOCC2)n1 [Compound 172, 4-[6-(2-aminoethyl)pyridin-3-yl]-3-(2-methyl-6-morpholin-4-ylpyridin-4-yl)oxybenzonitrile]",< 10
7,"Cc1cc(Oc2cc(C#N)ccc2-c2ccc(CCN)cn2)cc(N2CCOCC2)n1 [Compound 173, 4-[5-(2-aminoethyl)pyridin-2-yl]-3-(2-methyl-6-morpholin-4-ylpyridin-4-yl)oxybenzonitrile]",< 10
8,"Cn1nc(-c2ccccc2)cc1Oc1cc(C#N)ccc1-c1ccc(CCN)nc1 [Compound 174, 4-[6-(2-aminoethyl)pyridin-3-yl]-3-(2-methyl-5-phenylpyrazol-3-yl)oxybenzonitrile]",< 10
9,"Cn1nc(-c2ccccc2)cc1Oc1cc(C#N)ccc1-c1ccc(CCN)cn1 [Compound 175, 4-[5-(2-aminoethyl)pyridin-2-yl]-3-(2-methyl-5-phenylpyrazol-3-yl)oxybenzonitrile]",< 10
10,"Cn1nc(-c2ccccn2)cc1Oc1cc(C#N)ccc1-c1ccc(CCN)cn1 [Compound 176, 4-[5-(2-aminoethyl)pyridin-2-yl]-3-(2-methyl-5-pyridin-2-ylpyrazol-3-yl)oxybenzonitrile]",< 10
11,"Cn1nc(-c2cccnc2)cc1Oc1cc(C#N)ccc1-c1ccc(C(O)CN)cc1 (stereo not drawn) [Compound 177, 4-[4-(2-amino-1-hydroxyethyl)phenyl]-3-(2-methyl-5-pyridin-3-ylpyrazol-3-yl)oxybenzonitrile]",< 10
12,"Cn1nc(-c2cccnc2)cc1Oc1cc(C#N)ccc1-c1ccc(CCN)nc1 [Compound 178, 4-[6-(2-aminoethyl)pyridin-3-yl]-3-(2-methyl-5-pyridin-3-ylpyrazol-3-yl)oxybenzonitrile]",10 to 1000
13,"Cn1nc(-c2cccnc2)cc1Oc1cc(C#N)ccc1-c1ccc(CCN)cn1 [Compound 179, 4-[5-(2-aminoethyl)pyridin-2-yl]-3-(2-methyl-5-pyridin-3-ylpyrazol-3-yl)oxybenzonitrile]",< 10
14,"Cc1ccc(-c2cc(Oc3cc(C#N)ccc3-c3ccc(C(O)CN)cc3)n(C)n2)nc1 (stereo not drawn) [Compound 180, 4-[4-(2-amino-1-hydroxyethyl)phenyl]-3-[2-methyl-5-(5-methylpyridin-2-yl)pyrazol-3-yl]oxybenzonitrile]",< 10
15,"Cc1ccc(-c2cc(Oc3cc(C#N)ccc3-c3ccc(CCN)nc3)n(C)n2)nc1 [Compound 181, 4-[6-(2-aminoethyl)pyridin-3-yl]-3-[2-methyl-5-(5-methylpyridin-2-yl)pyrazol-3-yl]oxybenzonitrile]",10 to 1000
16,"Cc1ccc(-c2cc(Oc3cc(C#N)ccc3-c3ccc(CCN)cn3)n(C)n2)nc1 [Compound 182, 4-[5-(2-aminoethyl)pyridin-2-yl]-3-[2-methyl-5-(5-methylpyridin-2-yl)pyrazol-3-yl]oxybenzonitrile]",< 10
17,"Cn1nc(-c2ccc(F)cc2)cc1Oc1cc(C#N)ccc1-c1ccc(C(O)CN)cc1 (stereo not drawn) [Compound 183, 4-[4-(2-amino-1-hydroxyethyl)phenyl]-3-[5-(4-fluorophenyl)-2-methylpyrazol-3-yl]oxybenzonitrile]",< 10
18,"Cn1nc(-c2ccc(F)cc2)cc1Oc1cc(C#N)ccc1-c1ccc(CCN)nc1 [Compound 184, 4-[6-(2-aminoethyl)pyridin-3-yl]-3-[5-(4-fluorophenyl)-2-methylpyrazol-3-yl]oxybenzonitrile]",10 to 1000
19,"Cn1nc(-c2ccc(F)cc2)cc1Oc1cc(C#N)ccc1-c1ccc(CCN)cn1 [Compound 185, 4-[5-(2-aminoethyl)pyridin-2-yl]-3-[5-(4-fluorophenyl)-2-methylpyrazol-3-yl]oxybenzonitrile]",< 10
20,"Cn1nc(-c2cccc(F)c2)cc1Oc1cc(C#N)ccc1-c1ccc(CCN)cc1 [Compound 186, 4-[4-(2-aminoethyl)phenyl]-3-[5-(3-fluorophenyl)-2-methylpyrazol-3-yl]oxybenzonitrile]",< 10
21,"Cn1nc(-c2cccc(F)c2)cc1Oc1cc(C#N)ccc1-c1ccc(CCN)nc1 [Compound 187, 4-[6-(2-aminoethyl)pyridin-3-yl]-3-[5-(3-fluorophenyl)-2-methylpyrazol-3-yl]oxybenzonitrile]",< 10
22,"Cc1nc(Oc2cc(C#N)ccc2-c2ccc(CCN)nc2)cc(-c2cccnc2)n1 [Compound 188, 4-[6-(2-aminoethyl)pyridin-3-yl]-3-(2-methyl-6-pyridin-3-ylpyrimidin-4-yl)oxybenzonitrile]",> 1000
23,"Cc1ccc(-c2cc(Oc3cc(C#N)ccc3-c3ccc(CCN)nc3)nc(C)n2)nc1 [Compound 189, 4-[6-(2-aminoethyl)pyridin-3-yl]-3-[2-methyl-6-(5-methylpyridin-2-yl)pyrimidin-4-yl]oxybenzonitrile]",> 1000
24,"Cc1nc(Oc2cc(C#N)ccc2-c2ccc(CCN)nc2)cc(-c2ccc(F)cc2)n1 [Compound 190, 4-[6-(2-aminoethyl)pyridin-3-yl]-3-[6-(4-fluorophenyl)-2-methylpyrimidin-4-yl]oxybenzonitrile]",10 to 1000
25,"Cc1nc(Oc2cc(C#N)ccc2-c2ccc3c(c2)C(O)C(N)CC3)cc(-c2ccccc2)n1 (stereo not drawn) [Compound 191, 4-(7-amino-8-hydroxy-5,6,7,8-tetrahydronaphthalen-2-yl)-3-(2-methyl-6-phenylpyrimidin-4-yl)oxybenzonitrile]",> 1000
26,"Cc1nc(Oc2cc(C#N)ccc2-n2ncc3c2CCC(N)C3O)cc(-c2ccccc2)n1 (stereo not drawn) [Compound 192, 4-(5-amino-4-hydroxy-4,5,6,7-tetrahydroindazol-1-yl)-3-(2-methyl-6-phenylpyrimidin-4-yl)oxybenzonitrile]",10 to 1000
27,"Cc1nc(Oc2cc(C#N)ccc2-n2cc3c(n2)CCC(N)C3O)cc(-c2ccccc2)n1 (stereo not drawn) [Compound 193, 4-(5-amino-4-hydroxy-4,5,6,7-tetrahydroindazol-2-yl)-3-(2-methyl-6-phenylpyrimidin-4-yl)oxybenzonitrile]",> 1000
